Measured values from patent publication EP0234931A1, “Azaanthracene compounds” (TAISHO PHARMACEUTICAL CO. LTD, priority 1986, dated 1987).

Tested on: p388 lymphocytic leukemia
Assay: P388 Lymphocytic Leukemia Test
Assay type: in vivo, CDF₁ mice
Conditions: median survival time treated/control
Protocol: P388 Lymphocytic Leukemia Test
Female, CDF₁ mice (5-6 weeks old, weighing 17-20 g) were intraperitoneally transplanted with 1 × 10⁶ cells of p388 lymphocytic leukemia passaged on female, DBA/2 mice on day 0.
A suspension of the compound of formula (I) in 0.5% of gum arabic saline solution was administered intraperitoneally once a day, 5 times in all, from day l to day 5, or 2 times in all, day l and day 5. A solution of 5-fluorouracil in saline served as a reference drug, and was administered similarly. Control group were similarly administered with only 0.5% gum arabic saline solution.
Eight animals were used for the treated group with the compound of formula (I) and the reference drug, respectively, and 16 animals for control group.
The antitumor effect was evaluated according to the criterion of the National Cancer Institute of the United States (NCI). The survivors of each group were recorded for 30 days, and the value of T/C × 100 (%) was calculated from the median survival times for the treated animals (T) and the control animals (C). When the value is 125 or more, the drug is judged to be effective.

[1] = Dose 25.0 mg/kg intraperitoneally, administration day 1 - 5
[2] = Dose 50.0 mg/kg intraperitoneally, administration day 1 - 5

CN(C)CCNC(=O)c1c(O)c2ccccc2c2nc3ncncc3nc12 [Compound 8, N-β-dimethylaminoethyl 5-hydroxynaphtho[2,1-g]pteridine-6-carboxamide]
T/C x 100 [1]: 133% | T/C x 100 [2]: 153% | T/C x 100 (Dose 100 mg/kg intraperitoneally, administration day 1 - 5): 148%

CN(C)CCNC(=O)c1c(O)c2ccccc2c2nc3ncccc3nc12 [Compound 5, N-β-dimethylaminoethyl 5-hydroxybenzo[f]pyrido[3,2-b]quinoxaline-6-carboxamide]
T/C x 100 [1]: 130% | T/C x 100 (Dose 50.0 mg/kg intraperitoneally, administration day 1, 5): 135% | T/C x 100 (Dose 100 mg/kg intraperitoneally, administration day 1, 5): 195% | T/C x 100 (Dose 200 mg/kg intraperitoneally, administration day 1, 5): 200%

O=c1[nH]cc(F)c(=O)[nH]1 [5-fluoro-uracil, 5-fluorouracil, reference compound]
T/C x 100 (Dose 3.1 mg/kg intraperitoneally, administration day 1 - 5): 136% | T/C x 100 (Dose 6.3 mg/kg intraperitoneally, administration day 1 - 5): 148% | T/C x 100 (Dose 12.5 mg/kg intraperitoneally, administration day 1 - 5): 166% | T/C x 100 [1]: 176%

CN(C)CCNC(=O)c1c(O)c2ccccc2c2nc3ccncc3nc12 [Compound 1, N-β-dimethylaminoethyl 5-hydroxybenzo[f]pyrido[3,4-b]quinoxaline-6-carboxamide]
T/C x 100 (Dose 6.3 mg/kg intraperitoneally, administration day 1, 5, 30 days observation): 133% | T/C x 100 (Dose 12.5 mg/kg intraperitoneally, administration day 1, 5): 137% | T/C x 100 (Dose 25.0 mg/kg intraperitoneally, administration day 1, 5): 275%

O=C(NCCNCCO)c1c(O)c2ccccc2c2nc3ncccc3nc12 [Compound 7, N-2-(2-hydroxyethylamino)ethyl 5-hydroxybenzo[f]pyrido[3,2-b]quinoxaline-6-carboxamide]
T/C x 100 [1]: 174% | T/C x 100 [2]: 227%
